The values below come from patent US10471054B2, “CDK1 inhibitors of acetyl chrysin mannich base derivatives, synthesis and use thereof” (priority 2016, dated 2019).

What is called solubility is the concentration that dissolves in the medium under given conditions. What is called logP is the decadic logarithm of the partition coefficient of the neutral form, usually between octanol and water. Low values mean lower lipophilicity, high ones higher lipophilicity. For orientation: pKa means the negative logarithm of the acid dissociation constant. A lower pKa goes with a stronger acid or weaker base. By IC50 is commonly meant the concentration that gives 50% inhibition. A high value points to a need for much substance.

≈ marks a conversion by molar mass, not a printed value. Like-named read-outs stand apart in the source and are kept apart here.

Data set [1] in a line: Solubility in Octanol, water and pH media. Type of data set: physicochemical. The procedure: (§1) The solubility and log P of acetyl ChrysinMannich base derivatives see TABLE 1.
(§2) CH-j is pKa 5.3, log P 1.63 in Octanol/Water at 37° C. […] (BA-j 77m/ml). CH-j belongs to BCS II (low solubility, high permeability) and solubility presents the pH dependence. […] CH-j is a pH dependent fast release. […] It is speculated that CH-j has more appropriate log P and solubility with more likely entering tissue cells than others solubility acetyl Chrysin Mannich base derivatives.
(§3) (about 20 times BA-f 277 μg/ml) and 564 μg/ml in water at 37° C. (about 1000 times BA-f 0.53m/ml). CH-f is BCS I (high solubility and permeability) and solubility presents the pH dependence. It is speculated that CH-f has more appropriate log P and solubility with entering systemic (blood system and tissue cells) than others solubility acetyl Chrysin Mannich base derivatives.

Data set [2] can be described thus: log P in Octanol/Water. As to conditions: octanol/water, Octanol/Water at 37° C. The data set is classed as physicochemical. The procedure:
as §1, §2, §3

Data set [3] can be described thus: pKa. The data set is classed as physicochemical. The procedure:
as §2, §3

Data set [4] concerns MCF-7 and COS-7. Kind of data set: NO level, Rh-NO fluorescent probe imaging. Type of data set: cell-based. As to conditions: 25 μM for 12, 24, 48 h, Rh-NO probe 5 μM. How it is done:
[Organic Letters, 2008, 10: 2357-2360] […] This is because of cycloalkylamine-methyl releasing NO by Cope reaction, and the higher level of NO 4-methylpiperazine than 4-hydroxypiperidine.
FIG. 1-6: The performed fluorescence imaging with Rh—NO 5 μM, and add 25 μM of CH-j and CH-f for 12, 24, 48 h, affected the level of NO for 12, 24 and 48 h in MCF-7 and COS-7 by Single beam electron confocal fluorescence microscope (488/604 nm).

For data set [5], the system named is H-460. The data set is described as follows: Anti-cancer cells proliferation activity (MTT, 48 h). The data set is classed as cell-based. As to conditions: Homo sapiens, NCI-H460, H-460, MTT. An excerpt: (§4) Anti-cancer cells proliferationactivity of in vitro CH-j and CH-f were shown in TABLE 2 for the results of the screening of 5 cancers cells.
The test system of data set [6] is Hep G2. Described as above. Type of data set: cell-based. To be noted: Homo sapiens, HepG2.
From the text: as §4

Data set [7] has as its system MCF-7. Described as above. The data set is classed as cell-based. To be noted: Homo sapiens, MCF7, MCF-7, MTT.
From the text: as §4

The test system of data set [8] is PC-3. Described as above. Type of data set: cell-based. As to conditions: Homo sapiens, PC-3, MTT.
From the text: as §4

The subject of data set [9] is BGC-823. The data set is described as above. Type of data set: cell-based. To be noted: Homo sapiens, BGC-823, MTT. How it is done: as §4
FIG. 2: The initial screening results of the anticancer activity of BGC-823 (MTT, for 48 h), and X-coordinate is the drug concentration (MTT, for 48 h), and Y-coordinate the cell survival rate (%) in vitro.

For data set [10], the system named is 5 cancers cells (MCF-7, H-460, BGC-823, PC-3, Hep G2). The data set is described as follows: Anti-cancer cells proliferation activity, average of 5 cancer cells. The data set is classed as cell-based. As to conditions: for IC50: average of 5 cancer cells.
From the text: as §4

Data set [11] concerns MCF-7. The data set is described as follows: Hoechst 33258 fluorescence staining, apoptosis. The data set is classed as cell-based. As to conditions: 0, 5, 10, 20 μM for 24 h. How it is done:
Hoechst 33258 is an active fluorescent dye with DNA specific binding, which is mainly combined with base area of DNA, which emits blue fluorescence when stimulated by ultraviolet light. The living cells emit uniform fluorescence, the apoptotic cells are bright blue fluorescence due to their chromatin fixation, dense and concentrated nuclei.
MCF-7 was treated with 0, 5, 10, 20 μM of CH-f and CH-j for 24 h, Hoechst 33258 fluorescence staining, and cell morphological changes were shown in FIG. 3-1. […] CH-f and CH-j are completely different from the cytotoxic drug HCPT, which appears to be apoptotic at low doses and necrotic at high doses in BGC-823.
FIG. 3-1 Hoechst 33258 staining results for MCF-7.

Data set [12] concerns MCF-7. The data set is described as follows: Autophagy in MCF-7. Type of data set: cell-based. To be noted: 50 μM for 9 h and 24 h.
Data set [13] concerns Bcl-2. Kind of data set: Bcl-2 expression in MCF-7. Type of data set: cell-based. As to conditions: 10 μM for 24 h.
Data set [14] concerns the target CDK1 (Homo sapiens, UniProt P06493). The data set is described as follows: CDK1 inhibition activity. Type of data set: biochemical.

Chain of CDK1 (P06493 whole entry, species assumed): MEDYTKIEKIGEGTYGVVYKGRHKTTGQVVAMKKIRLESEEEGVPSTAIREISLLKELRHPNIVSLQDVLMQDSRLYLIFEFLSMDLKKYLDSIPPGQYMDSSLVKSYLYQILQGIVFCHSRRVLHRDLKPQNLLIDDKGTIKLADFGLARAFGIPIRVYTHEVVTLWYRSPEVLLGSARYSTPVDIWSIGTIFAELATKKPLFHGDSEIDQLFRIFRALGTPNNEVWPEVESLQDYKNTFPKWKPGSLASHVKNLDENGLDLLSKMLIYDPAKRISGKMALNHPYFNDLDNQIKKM
Chain of CDK1 (P14635 whole entry partner, species assumed): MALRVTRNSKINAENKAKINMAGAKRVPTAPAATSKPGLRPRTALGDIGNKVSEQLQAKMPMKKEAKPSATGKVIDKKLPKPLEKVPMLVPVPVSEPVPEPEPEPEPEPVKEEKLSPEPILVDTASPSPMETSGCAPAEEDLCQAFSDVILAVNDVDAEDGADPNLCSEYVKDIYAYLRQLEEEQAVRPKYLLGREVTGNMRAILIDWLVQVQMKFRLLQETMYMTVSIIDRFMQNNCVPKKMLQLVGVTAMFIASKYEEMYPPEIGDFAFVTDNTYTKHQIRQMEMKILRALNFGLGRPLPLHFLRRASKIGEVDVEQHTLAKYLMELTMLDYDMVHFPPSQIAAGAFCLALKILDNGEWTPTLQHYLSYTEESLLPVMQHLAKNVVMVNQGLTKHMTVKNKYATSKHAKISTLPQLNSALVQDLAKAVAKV

With `CC(=O)c1c(O)c(CN2CCN(C)CC2)c2oc(-c3ccccc3)cc(=O)c2c1O` [CH-f, 6-Acetyl-5,7-dihydroxy-8-(4-methylpiperazin-1-ylmethyl)-2-phenyl-chromen-4-one], the BCS class entry in [1] is “BCS I”. The “Solubility in water relative to BA-f” value in [1] (37° C.) is given as “about 1000 times”. Further, in data set [1] (CH-j vs BA-j, CH-f vs BA-f, 37° C.), the “Solubility in Octanol relative to BA analogue” value is recorded as “about 20 times”. For the same compound, the solubility in data set [1] (organic solvent or mixture, Octanol, 37° C., read-out: Solubility in Octanol) came to 5510 µg/mL (≈ 13.5 mM); in data set [1] (water, 37° C., read-out: Solubility in H2O), 564 µg/mL (≈ 1.38 mM). The compound also came in with a logP in data set [2] of 0.99. Further, the pKa in [3] is 4.9. For the same compound, in data set [4], the “Level of NO, red fluorescence” value was “stronger red fluorescence than CH-j in MCF-7”. For the same compound, the IC50 in data set [5] was 5.6 ± 1.33 µM; in data set [6], 6.1 ± 1.45 µM; in [7] it was 5.2 ± 1.24 µM; in data set [8], 5.1 ± 1.17 µM; in data set [9], 5.2 ± 1.21 µM; in [10] it was 2.3 µg/mL. In data set [10] (MTT, 48 h), this compound came in with an IC50 of 5.6 µM. Besides, the “Anti-proliferative activity, times stronger than BA-j” value in [10] is 2 times. For the same compound, the “Anti-proliferative activity, times stronger than Chrysin” value in data set [10] was 5 times. Further, the “Apoptosis by Hoechst 33258 staining” value in data set [11] was “apoptosis cell percentage in dose dependent increase”. In addition, the Autophagy entry in data set [12] is “can cause autophagy”. Besides, the Bcl-2 expression entry in data set [13] is “Bcl-2 expression can be suppressed”. For the same compound, the “CDK1 inhibition, times stronger than BA-j” value in data set [14] is reported as “about 2 times”. In addition, the CDK1 50% inhibitory concentration in [14] (read-out: inhibiting CDK1 CC50) stood at 130 nM.
